Values joined by “and” are separate entries in the source; they are usually repeats but may differ in a detail not shown here. Equal values may be shown once.
How the values were obtained:
Dihydrofolate reductase [1] = biological target: T1, Dihydrofolate reductase (Pneumocystis carinii, UniProt P16184); assay: (§1) Inhibition of Pneumocystis carinii dihydrofolate reductase
T1 sequence (P16184 whole entry): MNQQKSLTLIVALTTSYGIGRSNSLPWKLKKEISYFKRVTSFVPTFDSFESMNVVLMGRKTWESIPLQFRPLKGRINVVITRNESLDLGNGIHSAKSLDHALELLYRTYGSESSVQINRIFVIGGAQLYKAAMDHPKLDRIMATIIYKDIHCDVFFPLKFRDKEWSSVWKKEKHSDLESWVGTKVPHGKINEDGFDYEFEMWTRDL

Dihydrofolate reductase [2] = biological target: T2, Dihydrofolate reductase (Rattus norvegicus, UniProt Q920D2); assay: (§2) Inhibition of rat liver dihydrofolate reductase
T2 sequence (Q920D2 whole entry): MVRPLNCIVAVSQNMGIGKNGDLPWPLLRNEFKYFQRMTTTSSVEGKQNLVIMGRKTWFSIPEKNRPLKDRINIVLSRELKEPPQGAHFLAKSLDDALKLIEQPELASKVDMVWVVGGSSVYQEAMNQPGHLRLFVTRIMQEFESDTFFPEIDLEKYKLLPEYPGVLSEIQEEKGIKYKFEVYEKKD

Dihydrofolate reductase [3] = biological target: T2, Dihydrofolate reductase; assay: as §2; remark: listed apart in the source
[4] = biological target: T3, Bifunctional dihydrofolate reductase-thymidylate synthase (Toxoplasma gondii, UniProt Q07422); assay: (§3) Inhibition of Toxoplasma gondii dihydrofolate reductase
T3 sequence (Q07422 whole entry): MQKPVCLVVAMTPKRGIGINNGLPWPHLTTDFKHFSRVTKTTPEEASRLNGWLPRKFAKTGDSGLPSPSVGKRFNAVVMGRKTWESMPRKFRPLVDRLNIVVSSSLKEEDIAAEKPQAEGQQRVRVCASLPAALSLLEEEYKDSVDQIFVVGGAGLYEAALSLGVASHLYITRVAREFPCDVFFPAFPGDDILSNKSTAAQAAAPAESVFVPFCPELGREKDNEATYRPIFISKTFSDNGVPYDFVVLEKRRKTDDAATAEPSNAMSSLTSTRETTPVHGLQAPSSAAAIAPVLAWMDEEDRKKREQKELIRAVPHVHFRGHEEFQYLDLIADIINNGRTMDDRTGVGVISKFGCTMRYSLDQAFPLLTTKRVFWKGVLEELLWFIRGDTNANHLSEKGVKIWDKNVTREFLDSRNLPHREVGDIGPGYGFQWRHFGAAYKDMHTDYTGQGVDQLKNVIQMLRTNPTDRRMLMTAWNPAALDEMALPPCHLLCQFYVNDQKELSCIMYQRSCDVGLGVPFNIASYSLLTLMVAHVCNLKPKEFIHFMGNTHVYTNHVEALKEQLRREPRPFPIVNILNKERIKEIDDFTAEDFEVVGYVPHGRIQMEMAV

Dihydrofolate reductase [5] = biological target: T1, Dihydrofolate reductase; assay: as §1; remark: listed apart in the source
[6] = biological target: T3, Bifunctional dihydrofolate reductase-thymidylate synthase; assay: as §3; remark: listed apart in the source

Compound | IC50 (Dihydrofolate reductase [1]) [nM] | IC50 (Dihydrofolate reductase [2]) [nM] | IC50 (Dihydrofolate reductase [3]) [nM] | IC50 [4] | IC50 (Dihydrofolate reductase [5]) [nM] | IC50 [6]
COc1cc(CN(C)c2ccc3nc(N)nc(N)c3c2)cc(OC)c1 | 23.3 |  |  |  |  | 
CN(CC1CCc2nc(N)nc(N)c2C1)c1cccc2ccccc12 (stereo unspecified) |  | 160 |  |  |  | 
COc1cc(N(C)CC2CCc3nc(N)nc(N)c3C2)cc(OC)c1OC (stereo unspecified) |  |  | 38 |  |  | 
COc1cc(OC)c(CN(C)c2ccc3nc(N)nc(N)c3c2)c(OC)c1 | 116000 | 22700 | 22700 | 950 nM | 116000 | 950 nM
COc1cc(NNCc2cnc3nc(N)nc(N)c3c2C)c(-n2cccc2)cc1OC |  | 3500 | 3500 | 600 nM |  | 600 nM
COc1ccc(-c2ccccc2)cc1NNCc1cnc2nc(N)nc(N)c2c1C | 64 | 440 | 440 | 68 nM | 64 | 68.1 nM
Nc1nc(N)c2c(n1)CCC(CNc1cccc(Cl)c1)C2 (stereo unspecified) | 940 | 128 | 128 | 78 nM | 940 | 78 nM
Nc1nc(N)c2cc(NCc3cccc4ccccc34)ccc2n1 | 720 | 190 | 190 | 99 nM | 720 | 99 nM
COc1cc(NCc2cnc3nc(N)nc(N)c3c2C)c(O)cc1-n1cccc1 | 350 | 230 | 230 | 33 nM | 350 | 33 nM
Cc1c(CN(C)c2ccccc2)cnc2nc(N)nc(N)c12 | 30 | 18 | 18 | 6.3 nM | 30 | 6.3 nM
Cc1c(C)c(-n2cccc2)c(C)c(C)c1NNCc1cnc2nc(N)nc(N)c2c1C | 620 | 170 | 170 | 75 nM | 620 | 75 nM
Nc1nc(N)c2nc(CSc3ccc4ccccc4c3)ccc2n1 | 380 |  |  |  | 380 | 
Nc1nc(N)c2nc(CNc3cc(Cl)ccc3Cl)ccc2n1 | 1600 |  |  |  | 1600 | 
Nc1nc(N)c2nc(CNc3ccc(Cl)c(Cl)c3)ccc2n1 | 410 |  |  |  | 410 | 
Nc1nc(N)c2nc(CNc3ccc(Cl)cc3Cl)ccc2n1 | 730 |  |  |  | 730 | 
COc1ccc(NCc2ccc3nc(N)nc(N)c3n2)c(OC)c1 | 5500 |  |  |  | 5500 | 
Nc1nc(N)c2nc(CNc3cccc4ccccc34)ccc2n1 | 230 |  |  |  | 230 | 
COc1ccc(N(C)Cc2ccc3nc(N)nc(N)c3n2)c(OC)c1 | 160 |  |  |  | 160 | 
CN(Cc1ccc2nc(N)nc(N)c2n1)c1ccc(Cl)c(Cl)c1 | 38 |  |  |  | 38 | 
Nc1nc(N)c2nc(CSc3ccccc3)ccc2n1 | 2000 |  |  |  | 2000 | 

Compound | IC50 (Dihydrofolate reductase [1]) [nM] | IC50 (Dihydrofolate reductase [2]) [nM] | IC50 (Dihydrofolate reductase [3]) [nM] | IC50 [4] | IC50 (Dihydrofolate reductase [5]) [nM] | IC50 [6]
COc1ccc(OC)c(N(C)Cc2ccc3nc(N)nc(N)c3n2)c1 | 210 |  |  | 250 nM | 210 | 
Cc1c(CN(C)c2ccc(Cl)cc2)cnc2nc(N)nc(N)c12 | 80 | 170 | 170 | 1.7 nM | 80 | 1.7 nM
COc1cc(C(C)Nc2cnc3nc(N)nc(N)c3c2)cc(OC)c1OC (stereo unspecified) |  |  |  |  |  | 182 nM
COc1cc(OC)c(CNc2cnc3nc(N)nc(N)c3c2)c(OC)c1 |  |  | 1200 |  |  | 
COc1ccc(CNc2cnc3nc(N)nc(N)c3c2)c(OC)c1OC | 14100 | 3300 | 3300 | 350 nM | 14100 | 350 nM
COc1cc(CN(C)c2cnc3nc(N)nc(N)c3c2)cc(OC)c1 |  |  |  | 31 nM |  | 31 nM
CN(Cc1cccc2ccccc12)c1ccc2nc(N)nc(N)c2c1 | 17 | 17 | 17 |  | 17 | 21 nM
COc1ccc(N(C)Cc2ccc3nc(N)nc(N)c3n2)cc1 | 250 |  |  |  | 250 | 
Nc1nc(N)c2nc(CNc3ccc4ccccc4c3)ccc2n1 | 1600 |  |  |  | 1600 | 
COc1cc(CCC2CNc3nc(N)nc(N)c3C2)cc(OC)c1OC (stereo unspecified) | 7710 | 2100 | 2100 | 1100 nM | 7700 | 1100 nM
CN(Cc1ccc2nc(N)nc(N)c2n1)c1c(Cl)cccc1Cl | 170 |  |  |  | 170 | 
COc1cc(N(C)Cc2cnc3nc(N)nc(N)c3c2C)cc(OC)c1OC |  | 7.21 |  |  |  | 
CCN(Cc1cnc2nc(N)nc(N)c2c1C)c1cc(OC)c(OC)c(OC)c1 | 497 |  |  |  | 497 | 
COc1cc(N(C)Cc2ccc3nc(N)nc(N)c3n2)cc(OC)c1OC | 120 | 52 | 52 | 44 nM | 120 | 44 nM
CN(Cc1ccc2nc(N)nc(N)c2n1)c1cc(Cl)c(Cl)c(Cl)c1 | 250 |  |  |  | 250 | 
COc1ccc(NCc2ccc3nc(N)nc(N)c3n2)cc1 | 849 |  |  |  | 850 | 
COc1cccc(NCc2ccc3nc(N)nc(N)c3n2)c1 | 1700 |  |  |  | 1700 | 
COc1ccc(OC)c(NCc2ccc3nc(N)nc(N)c3n2)c1 | 4400 |  |  |  | 4400 | 
Nc1nc(N)c2nc(CNc3ccccc3Cl)ccc2n1 | 530 |  |  |  | 530 | 
CN(Cc1ccc2nc(N)nc(N)c2n1)c1ccccc1Cl | 210 |  |  |  | 210 | 

Compound | IC50 (Dihydrofolate reductase [1]) [nM] | IC50 (Dihydrofolate reductase [2]) [nM] | IC50 (Dihydrofolate reductase [3]) [nM] | IC50 [4] | IC50 (Dihydrofolate reductase [5]) [nM] | IC50 [6]
Nc1nc(N)c2nc(CNc3cc(Cl)c(Cl)c(Cl)c3)ccc2n1 | 661 |  |  |  | 660 | 
COc1ccccc1N(C)Cc1ccc2nc(N)nc(N)c2n1 | 510 |  |  |  | 510 | 
COc1ccccc1NCc1ccc2nc(N)nc(N)c2n1 | 2700 |  |  |  | 2700 | 
CN(Cc1ccc2nc(N)nc(N)c2n1)c1cccc2ccccc12 | 40 |  |  |  | 40 | 
Nc1nc(N)c2nc(CNc3cccc(Cl)c3)ccc2n1 | 2000 |  |  |  | 2000 | 
CN(Cc1ccc2nc(N)nc(N)c2n1)c1ccc(Cl)cc1Cl | 500 |  |  |  | 500 | 
Nc1nc(N)c2nc(CNc3ccccc3)ccc2n1 | 1700 |  |  |  | 1700 | 
COc1cccc(N(C)Cc2ccc3nc(N)nc(N)c3n2)c1 | 97 |  |  |  | 97 | 
Nc1nc(N)c2nc(CNc3c(Cl)cccc3Cl)ccc2n1 | 1000 |  |  |  | 1000 | 
CN(Cc1ccc2nc(N)nc(N)c2n1)c1ccccc1 | 290 |  |  | 0.84 nM | 290 | 
COc1cc(NCc2ccc3nc(N)nc(N)c3n2)cc(OC)c1OC | 2000 |  |  |  | 2000 | 
CN(Cc1ccc2nc(N)nc(N)c2n1)c1cc(Cl)ccc1Cl | 150 |  |  |  | 150 | 
Nc1nc(N)c2nc(CSc3cccc4ccccc34)ccc2n1 | 470 | 252 |  |  | 470 | 
CN(Cc1ccc2nc(N)nc(N)c2n1)c1ccc2ccccc2c1 | 52 |  |  |  | 52 | 
COc1ccc(NCc2ccc3nc(N)nc(N)c3n2)cc1OC | 900 |  |  |  | 900 | 
COc1ccc(N(C)Cc2ccc3nc(N)nc(N)c3n2)cc1OC | 91 | 270 |  |  | 91 | 
COc1cc(-n2ccc3c4c(N)nc(N)nc4nc(=O)c-3c2)cc(OC)c1OC | 4280 | 1120 | 1120 | 240 nM and 52 nM | 4280 | 240 nM and 52 nM
COc1ccccc1NCc1cnc2nc(N)nc(N)c2c1C | 68.9 | 80.1 | 80.1 | 7.4 nM | 68.9 | 7.4 nM

Reference: ChEMBL document CHEMBL1145190, “CoMFA and CoMSIA analyses of Pneumocystis carinii dihydrofolate reductase, Toxoplasma gondii dihydrofolate reductase, and rat liver dihydrofolate reductase” (J Med Chem, 2005)
